Key:
C. albicans = experiment: Zone of inhibition assay; format: cell-based, Candida albicans; settings: 20 μL per 6 mm disk, 72 hrs, n = 3
Experimental: For assays to find minimum inhibitory concentrations, all treatments were diluted in 10% DMSO and 0.5% Tween 80 to stabilize the samples.
Microorganisms Escherichia coli (ATCC #8739), Streptococcus sanguinis (ATCC #BAA-1455), Salmonella enteria subsp. enterica (ex Kauffmann and Edwards) Le Minor and Popoff serovar Typhimurium (ATCC #14028), Staphylococcus aureus (ATCC #6538), Pseudomonas aeruginosa (ATCC #9027), and Candida albicans (ATCC #10231) were obtained from a −80° C. internal stock culture. Aspergillus brasiliensis (ATCC #16404) was obtained from an internal stock solution culture stored at 4° C. E. coli, S. enterica S. aureus, and P. aeruginosa were grown in tryptic soy broth (TSB) and incubated at 37° C. for 24 h. S. sanguinis was grown in brain heart infusion broth (BHI). A. brasiliensis was plated on Sabourand dextrose agar (SDA) and incubated at 25° C. for 5-7 days. C. albicans was grown in Sabourand dextrose broth (SDB) and incubated at 25° C. for 48 h.
A. brasiliensis was harvested by adding 18 mL sterile saline to the plate and agitating the mold from the agar with a sterile inoculating loop. The inoculum was collected upon agitation. All suspended microbes were diluted with the same type of broth media used to grow each organism until an inoculum in the range of 10^6 CFU/mL was achieved. The inoculum concentration was determined by plate count method. Each strain was identified by plating on the appropriate growth media, E. coli, S. aureus, and P. aeruginosa on tryptic soy agar (Bacto, BD Sciences, Manassas, Va.) and C. albicans and A. brasiliensis on Sabrouand dextrose agar, to ensure there was no contamination of the inoculum.
A zone of inhibition assay was used for A. brasiliensis and C. albicans. SDA was used as the plated medium. Inocula at 10^5 cfu/ml were prepared and counted using a Petroff-Hausser counting chamber. The diameter of no growth around a 6 mm blank disk after incubation at 25° C. for 72 hrs was compared to the untreated control. 20 μL of treatment was applied to each disk in triplicate. 10% DMSO was used as the control.

[1] = tested on: Aspergillus brasiliensis (ATCC #16404); experiment: Preservative efficacy test (USP 51) in cold process cream, Example 1; format: cell-based; settings: cream with caprylic acid, by the end of the study (28 days)
Experimental: (§1) Creams were prepared aseptically by spraying 70% isopropyl alcohol on all surfaces and labware. Carbomer 940 and coco caprylate were obtained from BPI Labs, Inc. (Evanston, Wyo.). Safflower and olive oils were purchased from Jedwards International, Inc. (Quincy, Mass.). The cream formulations were as follows: […]
(§2) Preservative studies were completed at different times for caprylic acid and 10% carvacrol in caprylic acid. The negative and positive controls were designated at A, B for the caprylic acid study and 1, 2 for the addition of carvacrol in Table 1. The change in positive control ingredients was due to a shift in the preservative used for regular KPC formulations.
(§3) DI water was added to a pre-weighed 250 mL beaker and mixed at 800 rpm using an overhead mixer (Eurostar power-b IKA-WERKE, Wilmington, N.C.) with a 3 blade […] impeller. Carbomer 940 was slowly added to the center of the mixing water. The mixture was hydrated for 30 minutes while covered with aluminum foil. Glycerin quickly followed by Lysofix were slowly added to the solution. After 2 minutes, safflower oil, olive oil, and coco caprylate were slowly added to the mixture at 1000 rpm. The solution was mixed for 30 minutes while covered with aluminum foil. Next the pH was measured and adjusted to 5.5 with a 33.3% sodium hydroxide solution. The mixing speed was increased to 1400 rpm. From time to time, it was necessary to scrape the sides of the beaker with a spatula to ensure that the cream became homogenized. When the cream appeared homogenized, the amount of preservative or treatment was added. After 2 minutes, the cream was weighed and water added to reach a mass balance.
(§4) Microorganisms Escherichia coli (ATCC #8739), Staphylococcus aureus (ATCC #6538), Pseudomonas aeruginosa (ATCC #9027), and Candida albicans (ATCC #10231) were obtained from a −80° C. internal stock culture. Aspergillus brasiliensis (ATCC #16404) was obtained from an internal stock solution cultured stored at 4° C. E. coli, S. aureus, and P. aeruginosa were grown in tryptic soy broth (Bacto, BD Sciences, Manassas, Va.) and incubated at 37° C. for 24 h. A. brasiliensis was plated on Sabourand dextrose agar (Bacto, BD Sciences, Manassas, Va.) and incubated at 25° C. for 5-7 days. C. albicans was grown in Sabourand dextrose broth (Bacto, BD Sciences, Manassas, Va.) and incubated at 25° C. for 48 h.
(§5) Pathogens in broth were harvested by centrifugation (2400 rpm, 20 minutes) and suspended in sterile saline. A. brasiliensis was harvested by adding 18 mL sterile saline to the plate and agitating the mold from the agar with a sterile inoculating loop. The inoculum was collected upon agitation. All suspended microbes were diluted with sterile saline until an inoculum in the range of 10^8 CFU/mL was achieved. The inoculum concentration was determined by plate count method. Each strain was identified by plating on the appropriate growth media, E. coli, S. aureus, and P. aeruginosa on tryptic soy agar (Bacto, BD Sciences, Manassas, Va.) and C. albicans and A. brasiliensis on Sabrouand dextrose agar, to ensure there was no contamination of the inoculum.
(§6) Creams were plated according to the SOP^1 to ensure they were sterile. Each prepared cream was inoculated with 0.1 mL of inoculum per 10 g of sample to reach the targeted inoculated concentration of 6-log cfu/g. Samples were vortexed for 2 minutes. The inoculated creams were incubated at 25° C. […]

[2] = tested on: Candida albicans (ATCC #10231); experiment: as above; format: cell-based; settings: cream with 0.5% or 1.0% caprylic acid, after 2 days
Experimental: as §1, §2, §3, §4, §5, §6

[3] = tested on: Escherichia coli (ATCC #8739); experiment: as above; format: cell-based; settings: cream with 0.5% or 1.0% caprylic acid, after 3 days
Experimental: as §1, §2, §3, §4, §5, §6

[4] = tested on: Pseudomonas aeruginosa (ATCC #9027); experiment: as above; format: cell-based; settings: cream with 0.5% or 1.0% caprylic acid, after 2 days
Experimental: as §1, §2, §3, §4, §5, §6

[5] = tested on: Staphylococcus aureus (ATCC #6538); experiment: as above; format: cell-based; settings: cream with 0.5% or 1.0% caprylic acid, after 2 days
Experimental: as §1, §2, §3, §4, §5, §6

CCCCCCCC(=O)O [Caprylic Acid, octanoic acid]
Inhibition Diameter, C. albicans (C. albicans; 0.45% treatment): 3.5 mm | Inhibition Diameter, C. albicans (C. albicans; 0.9% treatment): 4.5 mm | Inhibition Diameter, C. albicans (C. albicans; 2.7% treatment): 24.5 mm | Log reduction of A. brasiliensis [1]: 2 log | Log reduction of C. albicans [2]: 5 log | Log reduction of E. coli [3]: 5 log | Log reduction of P. aeruginosa [4]: 5 log | Log reduction of S. aureus [5]: 5 log

Source: patent US9578878B2, “Antimicrobial efficacy of an oregano oil and caprylic acid blend” (Kemin Industries, Inc., priority 2014, dated 2017)
